Test results taken from patent publication USRE37664E1, “Use of derivatives of N-phenl-3,4,5,6-tetrahydrophthalimide for the desiccation and abscission of plant organs” (BASF Aktiengessellschaft, priority 1989, dated 2002).
Where a name gives a salt, the structure may show the parent alone.

How the values were obtained:
[1] = tested on: cotton plants (Delta Pine variety); experiment: Defoliation of young cotton plants under greenhouse conditions, Example C; assay type: in vivo; settings: foliar treatment of young cotton plants, 3 days after application, day/night 28/20° C., percentage of the control
Protocol: (§1) Young cotton plants (Delta Pine variety, stage of development: 5-6 developed foliage leaves) were cultivated under green house conditions (day/night temperature 28/20° C., relative humidity 514 70%) and the foliage was treated, until dripping wet, with aqueous formulations of the stated active ingredients. The converted amount of water was 1,000 l/ha. 3 days after application of the active ingredient, the number of dropped leaves and the degree of defoliation as a percentage of the control were stared. No dropping of leaves occurred in the untreated control plants.

[2] = tested on: cotton plants (Delta Pine variety); experiment: Defoliation of young cotton plants under greenhouse conditions, Example A; assay type: in vivo; settings: 12 days after application, day/night 23/16° C., as a percentage of the control
Protocol: as §1, with “development stage:” for “stage of development:”, “greenhouse” for “green house”, “23/16°” for “28/20°”, “50-70%)” for “514 70%)”, “12” for “3”, “stated.” for “stared.”

[3] = converted application rate 0.125 kg/ha
[4] = converted application rate 0.250 kg/ha

**Q.** For COC(=O)C(C)ON=C(C#N)c1cc(N2C(=O)C3=C(CCCC3)C2=O)ccc1Cl (centres unmarked) [Compound 7.27], which “% defoliation” value [1, 3] is on record?
**A.** 100%

**Q.** What about the “% defoliation” value [1, 4] of the same molecule?
**A.** 95%

**Q.** With Cc1ncccc1C(=O)N(C)C as the molecule, how does the melting point read?
**A.** 87 to 103 °C

**Q.** With O=C1C2=C(CCCC2)C(=O)N1c1cc(OCC2CCCOC2)c(Cl)cc1F (centres unmarked) [Compound 4.1] as the molecule, how does the “% defoliation” value ([2]; 0.062 kg/ha) read?
**A.** 83%

**Q.** For CC1CSC(c2cc(N3C(=O)C4=C(CCCC4)C3=O)ccc2Cl)S1 (centres unmarked) [Compound 2.5], which “% defoliation” value ([2]; 0.062 kg/ha) is on record?
**A.** 50%

**Q.** What about the “% defoliation” value ([2]; 0.125 kg/ha) of the same molecule?
**A.** 70%

**Q.** And the “% defoliation” value ([2]; 0.250 kg/ha)?
**A.** 97%

**Q.** What about the “% defoliation” value [1, 3] of the same molecule?
**A.** 97%

**Q.** What about the “% defoliation” value [1, 4] of the same molecule?
**A.** 100%

**Q.** What does the source list for CC1CCCO1 (centres unmarked)?
**A.** % defoliation [1, 3]: 48%; % defoliation [1, 4]: 53%

**Q.** For c1cc[n+]2c(c1)-c1cccc[n+]1CC2 [Comparative agent II, 6,7-dihydropyridol(1,2-α:2′,1′-c)pyridilium as the dibromide monohydrate salt, reference compound], which “% defoliation” value ([2]; 0.250 kg/ha) is on record?
**A.** 11%

**Q.** What about the “% defoliation” value ([2]; 0.500 kg/ha) of the same molecule?
**A.** 27%

**Q.** What does the source list for COC(=O)C(C)=Cc1cc(N2C(=O)C3=C(CCCC3)C2=O)ccc1Cl [Compound 1.26]?
**A.** % defoliation ([2]; 0.062 kg/ha): 67%; % defoliation ([2]; 0.125 kg/ha): 79%; % defoliation ([2]; 0.250 kg/ha): 89%

**Q.** Which “% defoliation” value ([2]; 0.062 kg/ha) does the source give for O=C(Nc1ccccc1)Nc1cnns1 [Comparative agent I, N-phenyl-N′-(1,2,3-thiadiazol-5-yl)-urea, reference compound] here?
**A.** 13%

**Q.** And the “% defoliation” value ([2]; 0.125 kg/ha)?
**A.** 31%

**Q.** What about the “% defoliation” value ([2]; 0.250 kg/ha) of the same molecule?
**A.** 67%

**Q.** With CCOC(=O)C(Cl)=Cc1cc(N2C(=O)C3=C(CCCC3)C2=O)ccc1Cl [Compound 1.17, N-[3-(1′-ethoxycarbonyl-1′-chloroethenyl)-4-chlorophenyl]-3,4,5,6-tetrahydrophthalimide] as the molecule, how does the “% defoliation” value ([2]; 0.062 kg/ha) read?
**A.** 55%

**Q.** What about the “% defoliation” value ([2]; 0.125 kg/ha) of the same molecule?
**A.** 84%

**Q.** What about the “% defoliation” value ([2]; 0.250 kg/ha) of the same molecule?
**A.** 89%

**Q.** And the “% defoliation” value [1, 3]?
**A.** 95%

**Q.** And the “% defoliation” value [1, 4]?
**A.** 100%

**Q.** What does the source list for COC(=O)C(Br)=Cc1cc(N2C(=O)C3=C(CCCC3)C2=O)ccc1Cl [Compound 1.1]?
**A.** % defoliation ([2]; 0.062 kg/ha): 26%; % defoliation ([2]; 0.125 kg/ha): 61%; % defoliation ([2]; 0.250 kg/ha): 80%; % defoliation [1, 3]: 100%; % defoliation [1, 4]: 98%
